Measured values from US20250333397A1 (REMIX THERAPEUTICS INC., priority 2021, published 2025).
Like-named read-outs stand apart in the source and are kept apart here.

How the values were obtained:
Assay type in all cases: cell-based, human
HTT mRNA = experiment: RT-qPCR splicing assay, HTT canonical (CJ) and alternative (AJ) junction mRNA; conditions: for AC50: read-out: HTT AJ (AC50, increase in AJ mRNA)
In short: (§1)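 CJ and AJ junction levels were quantified by RT-qPCR on lysates, with housekeeper ΔCt normalized to DMSO (ΔΔCt) and expressed as RQ = 2^(-ΔΔCt). Before lysis, K562 or A673 cells had 24 h compound exposure at 37 °C. Dosing was 11 points, 3-fold, from 10 uM final, with DMSO at most 0.25%.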

Target C mRNA = experiment: RT-qPCR splicing assay panel, Target C canonical junction (CJ) mRNA; conditions: canonical junction (CJ) mRNA, RT-qPCR panel, Table 4A, read-out: Target C, decrease in CJ mRNA levels, IC50
In short: as §1

SMN2 mRNA = experiment: RT-qPCR splicing assay panel, SMN2 canonical junction (CJ) mRNA; conditions: canonical junction (CJ) mRNA, RT-qPCR panel, Table 4A, read-out: SMN2, decrease in CJ mRNA levels, IC50
In short: as §1

MYB mRNA = experiment: RT-qPCR splicing assay, MYB canonical (CJ) and alternative (AJ) junction mRNA; conditions: for AC50: read-out: MYB AJ (AC50, increase in AJ mRNA)
In short: as §1

[1] = Homo sapiens, 24 h, Table 3A, A673 or K562 cells, 24 h treatment
[2] = Homo sapiens, 24 h, Table 3A, A673 or K562 cells, 24 h treatment, read-out: HTT CJ (IC50, decrease in CJ mRNA)
[3] = Homo sapiens, canonical junction (CJ) mRNA, RT-qPCR panel, Table 4A, read-out: HTT, decrease in CJ mRNA levels, IC50
[4] = Homo sapiens, 24 h, Table 3A, A673 or K562 cells, 24 h treatment, read-out: MYB CJ (IC50, decrease in CJ mRNA)
[5] = Homo sapiens, canonical junction (CJ) mRNA, RT-qPCR panel, Table 4A, read-out: MYB, decrease in CJ mRNA levels, IC50
[6] = Table 3A, A673 or K562 cells, 24 h treatment

## CNc1cc(-c2ccc(-c3ccc(N4CC[C@@H](NC(C)(C)C)C4)nn3)c(O)c2)ncn1 [Compound 437, 2-{6-[(3R)-3-(tert-butylamino)pyrrolidin-1-yl]pyridazin-3-yl}-5-[6-(methylamino)pyrimidin-4-yl]phenol]
HTT mRNA; [1]
  AC50: < 100 nM
HTT mRNA; [2]
  IC50: < 100 nM
HTT mRNA; [3]
  IC50: < 100 nM
Target C mRNA; Homo sapiens
  IC50: < 100 nM
SMN2 mRNA; Homo sapiens
  IC50: < 100 nM
MYB mRNA; [1]
  AC50: < 100 nM
MYB mRNA; [4]
  IC50: < 100 nM
MYB mRNA; [5]
  IC50: < 100 nM

## COc1cc(-c2ccc(-c3ccc(N4CC[C@@H](CNC5CCC5)C4)nn3)c(O)c2)cnn1 [Compound 440, 2-{6-[(3S)-3-[(cyclobutylamino)methyl]pyrrolidin-1-yl]pyridazin-3-yl}-5-(6-methoxypyridazin-4-yl)phenol]
HTT mRNA; [1]
  AC50: 100 to 1000 nM
HTT mRNA; [2]
  IC50: < 100 nM
HTT mRNA; [3]
  IC50: < 100 nM
Target C mRNA; Homo sapiens
  IC50: 100 to 1000 nM
SMN2 mRNA; Homo sapiens
  IC50: < 100 nM
MYB mRNA; [1]
  AC50: 100 to 1000 nM
MYB mRNA; [4]
  IC50: 100 to 1000 nM
MYB mRNA; [5]
  IC50: 100 to 1000 nM

## CCc1ncc(-c2cc(O)c(-c3ccc(N4CCC(NC5CCC5)C4)nn3)cc2F)s1 (stereo not shown) [Compound 442]
HTT mRNA; [1]
  AC50: 1000 to 10000 nM
HTT mRNA; [2]
  IC50: > 10000 nM
HTT mRNA; [3]
  IC50: > 10000 nM
Target C mRNA; Homo sapiens
  IC50: > 10000 nM
SMN2 mRNA; Homo sapiens
  IC50: 1000 to 10000 nM
MYB mRNA; [1]
  AC50: > 10000 nM
MYB mRNA; [4]
  IC50: > 10000 nM
MYB mRNA; [5]
  IC50: > 10000 nM

## Oc1cc(-c2cnn3c2CCC3)c(F)cc1-c1ccc(N2CCC(NC3CCC3)C2)nn1 (stereo not shown) [Compound 443]
HTT mRNA; [1]
  AC50: 1000 to 10000 nM
HTT mRNA; [2]
  IC50: 1000 to 10000 nM
HTT mRNA; [3]
  IC50: 1000 to 10000 nM
Target C mRNA; Homo sapiens
  IC50: > 10000 nM
SMN2 mRNA; Homo sapiens
  IC50: 1000 to 10000 nM
MYB mRNA; [1]
  AC50: > 10000 nM
MYB mRNA; [4]
  IC50: > 10000 nM
MYB mRNA; [5]
  IC50: > 10000 nM

## Oc1cc(-c2cnc(C3CC3)s2)c(F)cc1-c1ccc(N2CCC(NC3CCC3)C2)nn1 (stereo not shown) [Compound 444]
HTT mRNA; [1]
  AC50: > 10000 nM
HTT mRNA; [2]
  IC50: > 10000 nM
HTT mRNA; [3]
  IC50: > 10000 nM
Target C mRNA; Homo sapiens
  IC50: > 10000 nM
SMN2 mRNA; Homo sapiens
  IC50: 1000 to 10000 nM
MYB mRNA; [1]
  AC50: > 10000 nM
MYB mRNA; [4]
  IC50: > 10000 nM
MYB mRNA; [5]
  IC50: > 10000 nM

## CC(=O)c1cc(-c2ccc(-c3ccc(N4CCC(NC5CCC5)C4)nn3)c(O)c2)cnn1 (stereo not shown) [Compound 445]
HTT mRNA; [1]
  AC50: > 10000 nM
HTT mRNA; [2]
  IC50: > 10000 nM
HTT mRNA; [3]
  IC50: > 10000 nM
Target C mRNA; Homo sapiens
  IC50: > 10000 nM
SMN2 mRNA; Homo sapiens
  IC50: > 10000 nM
MYB mRNA; [1]
  AC50: > 10000 nM
MYB mRNA; [4]
  IC50: > 10000 nM
MYB mRNA; [5]
  IC50: > 10000 nM

## CN([C@@H]1CCN(c2ccc(-c3ccc(-c4cn[nH]c4)cc3O)nn2)C1)C(C)(C)C [Compound 446]
HTT mRNA; [6]
  AC50: < 100 nM
HTT mRNA; Table 3A, A673 or K562 cells, 24 h treatment, read-out: HTT CJ (IC50, decrease in CJ mRNA)
  IC50: < 100 nM
HTT mRNA; canonical junction (CJ) mRNA, RT-qPCR panel, Table 4A, read-out: HTT, decrease in CJ mRNA levels, IC50
  IC50: < 100 nM
Target C mRNA
  IC50: < 100 nM
SMN2 mRNA
  IC50: < 100 nM
MYB mRNA; [6]
  AC50: < 100 nM
MYB mRNA; Table 3A, A673 or K562 cells, 24 h treatment, read-out: MYB CJ (IC50, decrease in CJ mRNA)
  IC50: < 100 nM
MYB mRNA; canonical junction (CJ) mRNA, RT-qPCR panel, Table 4A, read-out: MYB, decrease in CJ mRNA levels, IC50
  IC50: < 100 nM

## COc1cc(-c2ccc(-c3ccc(N4CCC(N[C@H]5C[C@H](O)C5)C4)nn3)c(O)c2)cnn1 (stereo partly shown) [Compound 447]
HTT mRNA; [1]
  AC50: < 100 nM
HTT mRNA; [2]
  IC50: < 100 nM
HTT mRNA; [3]
  IC50: < 100 nM
Target C mRNA; Homo sapiens
  IC50: 100 to 1000 nM
SMN2 mRNA; Homo sapiens
  IC50: < 100 nM
MYB mRNA; [1]
  AC50: 100 to 1000 nM
MYB mRNA; [4]
  IC50: 100 to 1000 nM
MYB mRNA; [5]
  IC50: 100 to 1000 nM

## COc1cc(-c2ccc(-c3ccc(N4CCC(N[C@H]5C[C@H](OC)C5)C4)nn3)c(O)c2)cnn1 (stereo partly shown) [Compound 448]
HTT mRNA; [1]
  AC50: 100 to 1000 nM
HTT mRNA; [2]
  IC50: 100 to 1000 nM
HTT mRNA; [3]
  IC50: 100 to 1000 nM
Target C mRNA; Homo sapiens
  IC50: 100 to 1000 nM
SMN2 mRNA; Homo sapiens
  IC50: < 100 nM
MYB mRNA; [1]
  AC50: 100 to 1000 nM
MYB mRNA; [4]
  IC50: 100 to 1000 nM
MYB mRNA; [5]
  IC50: 100 to 1000 nM

## COc1cc(-c2ccc(-c3cc(C)c(N4CC[C@H](NC5CCC5)C4)nn3)c(O)c2)cnn1 [Compound 449, 2-{6-[(3S)-3-(cyclobutylamino)pyrrolidin-1-yl]-5-methylpyridazin-3-yl}-5-(6-methoxypyridazin-4-yl)phenol]
HTT mRNA; [1]
  AC50: 100 to 1000 nM
HTT mRNA; [2]
  IC50: 100 to 1000 nM
HTT mRNA; [3]
  IC50: 100 to 1000 nM
Target C mRNA; Homo sapiens
  IC50: 1000 to 10000 nM
SMN2 mRNA; Homo sapiens
  IC50: < 100 nM
MYB mRNA; [1]
  AC50: 100 to 1000 nM
MYB mRNA; [4]
  IC50: 100 to 1000 nM
MYB mRNA; [5]
  IC50: 100 to 1000 nM

## COc1cc(-c2ccc(-c3nnc(N4CC[C@H](NC5CCC5)C4)cc3C)c(O)c2)cnn1 [Compound 450, (S)-2-(6-(3-(cyclobutylamino)pyrrolidin-1-yl)-4-methylpyridazin-3-yl)-5-(6-methoxypyridazin-4-yl)phenol]
HTT mRNA; [1]
  AC50: 1000 to 10000 nM
HTT mRNA; [2]
  IC50: 1000 to 10000 nM
HTT mRNA; [3]
  IC50: 1000 to 10000 nM
Target C mRNA; Homo sapiens
  IC50: 1000 to 10000 nM
SMN2 mRNA; Homo sapiens
  IC50: 1000 to 10000 nM
MYB mRNA; [1]
  AC50: 1000 to 10000 nM
MYB mRNA; [4]
  IC50: 1000 to 10000 nM
MYB mRNA; [5]
  IC50: 1000 to 10000 nM
